Source: patent EP0278452A2, “2,4- and 2,5-Pyridine-dicarboxylic-acid derivatives, process for their preparation, their use and medicines based on these compounds” (HOECHST AKTIENGESELLSCHAFT, priority 1987, dated 1988)

System: Prolin- und Lysinhydroxylase
Assay: CCl4-induced liver injury (fibrosis) in rats: collagen markers after treatment with the compound
Format: in vivo, Ratten
Details: rats given CCl4, then compound, Dosierung 2 x 25 mg
From the text: Die Aktivität der Fibrogenase kann durch radioimmunologische Bestimmung des N-terminalen Propeptids des Kollagens Typ III oder der N- bzw. C-terminalen Quervernetzungsdomäne des Kollagens Typ IV (7s-Kollagen bzw. Typ-IV-Kollagen-NC₁) im Serum bestimmt werden.
Zu diesem Zweck wurden die Hydroxyprolin-, Prokollagen-III-Peptid-, 7s-Kollagen- und Typ-IV-Kollagen-NC₁-Konzentrationen in der Leber von • a) unbehandelten Ratten (Kontrolle) • b) Ratten, denen Tetrachlorkohlenstoff verabreicht wurde (CCl₄-Kontrolle) • c) Ratten, denen zunächst CCl₄ und anschließend eine erfindungsgemäße Verbindung verabreicht wurde gemessen (diese Testmethode wird beschrieben von Rouiller, C., experimental toxic injury of the liver; in The Liver, C. Rouiller, Vol. 2, S. 335-476, New York, Academic Press, 1964).
Die pharmakologische Wirksamkeit der erfindungsgemäßen Substanzen wurde in einer Versuchsreihe (s. Tabelle 1) untersucht. Dabei zeigte sich eine deutliche Hemmung der Prolin- und Lysinhydroxylase.

COC(=O)C(C)(C)COC(=O)c1ccc(C(=O)OCC(C)(C)C(=O)OC)nc1 [compound 4, Pyridin-2,5-dicarbonsäure-bis(2-methoxycarbonyl-2,2-dimethylethyl)ester]
Hydroxy-prolin (CCl4-Kontrolle 0.773, Kontrolle 0.289): 0.482 µg/mg Leber
Prokollagen-III-Peptid (CCl4-Kontrolle 73.9, Kontrolle 11.1): 37.2 ng/mL
Typ-IV-Kollagen-NC1 (CCl4-Kontrolle 168.4, Kontrolle 23.5): 100.8 ng/mL
7s-Kollagen (CCl4-Kontrolle 308.7, Kontrolle 22.8): 121.4 ng/mL
